Measurements from patent US20230404971A1, “Combination Comprising Abemaciclib and 6-(2,4-Dichlorophenyl)-5-[4-[(3S)-1-(3-Fluoropropyl)Pyrrolidin-3-yl]Oxyphenyl]-8,9-Dihydro-7H-Benzo[7]Annulene-2-Carboxylic Acid” (Sanofi, priority 2020, published 2023).

Tests used:
[1] = test system: MCF7-Y537S human breast cancer cell line xenograft; test: Anti-tumor efficacy against subcutaneous MCF7-Y537S human breast cancer cell line xenograft in female nude mice; assay type: in vivo, female BALB/c nude mice; design: key to Biological Interpretation: Active: ΔT/ΔC≤40% is considered as therapeutically active; Very active: ΔT/ΔC<0% is considered as tumor regression (very active); Inactive: ΔT/ΔC>40% is considered as therapeutically inactive; settings: for Tumor volume changes from baseline, Median: n = 7
Protocol: In the present study, the anti-tumor efficacy of 6-(2,4-dichlorophenyl)-5-[4-[(3S)-1-(3-fluoropropyl)pyrrolidin-3-yl]oxyphenyl]-8,9-dihydro-7H-benzo[7]annulene-2-carboxylic acid (“compound (1)”), combined with abemaciclib, was investigated after 22 days treatment against a subcutaneous MCF7-Y537S human breast cancer cell line xenograft in female nude mice.
The treated groups included compound (1) at 20 mg/kg alone, abemaciclib at 70 mg/kg alone, and the combination of compound (1) and abemaciclib at the same dose and regime,
Compound (1) was orally dosed twice a day (BID) and abemaciclib was orally dosed once a day (QD) for 22 days. Anti-tumor efficacy was evaluated by tumor volume measurement.
Female BALB/c nude mice were obtained from Shanghai Sino-British SIPPR/BK Laboratory Animal Co., LTD (Shanghai, CHINA). Animals were allowed to acclimate for at least four days before the study enrollment. Mice were 6 to 8 weeks old and weighed between 18 and 24 grams at the beginning of the treatments. These animals were housed under conditions outlined in the guidelines approved by the Institutional Animal Care and Use Committee (IACUC) of WuXi AppTec following the guidance of the Association for Assessment and Accreditation of Laboratory Animal Care (AAALAC).
Parental MCF7 cells were obtained from the American Type Culture Collection (ATCC® HTB-22™). MCF7-Y537S (ESR1) cell line was MCF7 cells expressing the ER.Y537S variant that was generated by Sanofi Biology Discovery Group. Y537S mutation was introduced in ESR1 construct (GenBank NM_000125.3) by site directed mutagenesis (Toy W. et al., Cancer Discovery, 2017, 7, 277-287). The construct was transfected in MCF7 cells which were selected for their growth in absence of estradiol. MCF-Y537S is an ESR1 mutation that confers estrogen-independent activity to ERα (Estrogen Receptor alpha) and contributes to endocrine resistant disease (Robinson D. R. et al., Nat Genet., 2013, 45 (12), 1446-1451). The cells were grown in Eagle's Minimum Essential Medium (EMEM) supplemented with 10% fetal bovine serum (FBS), human Insulin, in 5% CO2 at 37° C. The cells were harvested in 0.25% Trypsin EDTA and washed by Phosphate Buffered Saline (PBS) and re-suspended in PBS with 75% Matrigel. The cells (20×10^6 cells/per mouse) were subcutaneously (SC) implanted into the right flank of female nude mice.
When the MCF7-Y537S tumors were established, the tumors were reserved as tumor stocks for fragment implantation. The tumors were serially propagated through fragment tissue transplantation subcutaneously. The fragment tumor tissues were subcutaneously implanted into the right flank of female nude mice. 28 mice were assigned in this experiment.
Abemaciclib (Manufacturer: Sanofi; Lot number: VAC.DLE20.006.1) was formulated in 40% SBE-β-CD in HCl 0.1N pH 3.0. Compound (1) was prepared in 5% Solutol HS15 (purchased from Sigma) at pH 3.0.
Dose volume for compound (1) and abemaciclib for oral administration: 10 ml/kg by oral gavage.
Doses: compound (1) at 20 mg/kg and abemaciclib at 70 mg/kg in the above volume.
The animals required for experiment (plus extra) were pooled and implanted with MCF7-Y537S tumor fragment tissues. On day 0 (20 days post implantation), the mice were pooled and randomly distributed to the treatment and control groups (7 mice per group), where median tumor volumes for each group was 173 mm^3. Treatments of compound (1) and abemaciclib were initiated on day 0. Compound (1) was orally administered at 20 mg/kg BID (8 hours apart) and abemaciclib was orally administered at 70 mg/kg QD, for 22 days. Animal body weight was assessed daily.
The dosages are expressed in mg/kg and based on daily body weight per animal. Vehicle treated animals were used as controls. Mice were checked daily and adverse clinical reactions noted. Individual mice were weighed daily until the end of the experiment. Mice would be euthanized when morbid or weight loss ≥20% was observed. […]

[2] = Tolerability (body weight, deaths) in the MCF7-Y537S xenograft study; assay type: in vivo
Protocol: The animals required for experiment (plus extra) were pooled and implanted with MCF7-Y537S tumor fragment tissues. […] Animal body weight was assessed daily.
The dosages are expressed in mg/kg and based on daily body weight per animal. Vehicle treated animals were used as controls. Mice were checked daily and adverse clinical reactions noted. Individual mice were weighed daily until the end of the experiment. Mice would be euthanized when morbid or weight loss ≥20% was observed. Tumors were measured with a caliper twice weekly until final sacrifice. When a tumor size reached approximately 2000 mm^3 or when there are animal health issues (40% area of a tumor ulcerated), animals would be euthanized and date of death recorded. Solid tumor volumes were estimated from two-dimensional tumor measurements and calculated according to the following equation: […]
Animal body weight included the tumor weight.

[3] = day 22, PO for 22 days, compound (1) 20 mg/kg BID, abemaciclib 70 mg/kg QD, alone or combined

For CCN1CCN(Cc2ccc(Nc3ncc(F)c(-c4cc(F)c5nc(C)n(C(C)C)c5c4)n3)nc2)CC1 [Abemaciclib, N-{5-[(4-ethylpiperazin-1-yl)methyl]pyridin-2-yl}-5-fluoro-4-[4-fluoro-2-methyl-1-(propan-2-yl)-1H-benzimidazol-6-yl]pyrimidin-2-amine], the “Tumor volume changes from baseline, Median” value (“Tumor volume changes” below) ([1]; Day 4, compound (1) 20 mg/kg BID, abemaciclib 70 mg/kg QD, alone or combined) was 9.0 mm^3, the “Tumor volume changes” value ([1]; Day 8, compound (1) 20 mg/kg BID, abemaciclib 70 mg/kg QD, alone or combined) was 40.0 mm^3 and the “Tumor volume changes” value ([1]; Day 11, compound (1) 20 mg/kg BID, abemaciclib 70 mg/kg QD, alone or combined) was 83.0 mm^3. The “Tumor volume changes” value ([1]; Day 15, compound (1) 20 mg/kg BID, abemaciclib 70 mg/kg QD, alone or combined) was 119.0 mm^3, the “Tumor volume changes” value ([1]; Day 18, compound (1) 20 mg/kg BID, abemaciclib 70 mg/kg QD, alone or combined) was 150.0 mm^3 and the “Tumor volume changes” value ([1]; Day 22, compound (1) 20 mg/kg BID, abemaciclib 70 mg/kg QD, alone or combined) was 199.0 mm^3. The “Regressions Complete” value ([1]; animals with complete regression / animals in group, 22 days treatment) was 0/7, the “Regressions Partial” value ([1]; animals with partial regression / animals in group, 22 days treatment) was 0/7 and the “Biological Interpretation” value ([1]; based on ΔT/ΔC at day 22) was “Active”. The “Median % of regressions on day 22” value [1, 3] was 0%, the “ΔT/ΔC in % at day 22” value [1, 3] was 19% and the “Anti-tumor effect on tumor growth (in words)” value ([1]; day 22, versus control) was “statistically significant anti-tumor efficacy”. The Body weight loss ([2]; compound (1) 20 mg/kg BID, abemaciclib 70 mg/kg QD, alone or combined, 22 days, PO) was “no significant body weight loss” and the “Unscheduled death (Day of death)” value ([2]; deaths / animals in group, 22 days treatment) was 0/7.
